Measurements taken from US20220194936A1, “CRYSTALLINE FORMS OF N-(5-(5-((1R,2S)-2-FLUOROCYCLOPROPYL)-1,2,4-OXADIAZOL-3-YL)-2-METHYLPHENYL)IMIDAZO[1,2-A]PYRIDINE-3-CARBOXAMIDE” (Novartis AG, priority 2019, published 2022).

Tests used:
Format in all cases: physicochemical
[1] = Evaluation of closed container thermal degradation (solid state, 1 week; HPLC, XRPD, color); settings: tight container; for Bulk (XRPD): 50° C. and 80° C.
Description: 5-(5-((1R,2S)-2-fluorocyclopropyl)-1,2,4-oxadiazol-3-yl)-2-methylphenyl)imidazo[1,2-a]pyridine-3-carboxamide Form A (10 mg) was placed in a closed vial at 50° C. and 80° C. chamber for 1 week. The initial purity of (5-(5-((1R,2S)-2-fluorocyclopropyl)-1,2,4-oxadiazol-3-yl)-2-methylphenyl)imidazo[1,2-a]pyridine-3-carboxamide Form A was 99.7%.
The samples were examined by XRPD for physical stability determination and by HPLC for chemical stability determination indicated by the presence of degradation products (DP).
The HPLC method used is described in Example 13-1. The color (CL) of the samples was evaluated by visual observation.
(5-(5-((1R,2S)-2-fluorocyclopropyl)-1,2,4-oxadiazol-3-yl)-2-methylphenyl)imidazo[1,2-a]pyridine-3-carboxamide fumaric acid co-crystal (10 mg) was placed in a closed vial at 50° C. and 80° C. chamber for 1 week. The initial purity of (5-(5-((1R,2S)-2-fluorocyclopropyl)-1,2,4-oxadiazol-3-yl)-2-methylphenyl)imidazo[1,2-a]pyridine-3-carboxamide Fumaric acid co-crystal was 99.7%.
The HPLC method used is described in Example 19-1. The color (CL) of the samples was evaluated by visual observation.

[2] = Evaluation of the effect of grinding and granulation; settings: Grinding and granulation with added water or ethanol
Description: 5-(5-((1R,2S)-2-fluorocyclopropyl)-1,2,4-oxadiazol-3-yl)-2-methylphenyl)imidazo[1,2-a]pyridine-3-carboxamide Form A (10 mg) was placed in a container and ground with added water or ethanol.
5-(5-((1R,2S)-2-fluorocyclopropyl)-1,2,4-oxadiazol-3-yl)-2-methylphenyl)imidazo[1,2-a]pyridine-3-carboxamide fumaric acid co-crystal (10 mg) was placed in a container and ground with added water or ethanol.

[3] = Hygroscopicity by DVS at 25° C.
Description: The hygroscopicity of 5-(5-((1R,2S)-2-fluorocyclopropyl)-1,2,4-oxadiazol-3-yl)-2-methylphenyl)imidazo[1,2-a]pyridine-3-carboxamide Form A was evaluated by DVS at 25° C. and various RH values. The samples was examined by XRPD for physical stability determination.
The hygroscopicity of 5-(5-((1R,2S)-2-fluorocyclopropyl)-1,2,4-oxadiazol-3-yl)-2-methylphenyl)imidazo[1,2-a]pyridine-3-carboxamide fumaric acid co-crystal was evaluated by DVS at 25° C. and various RH values. The samples was examined by XRPD for physical stability determination.

Structure (SMILES)	Bulk (XRPD) [1]	CL (color) ([1]; 50° C.)	DP (%) degradation products, Bulk (HPLC) ([1]; 50° C.) [%]	CL (color) ([1]; 80° C.)	DP (%) degradation products, Bulk (HPLC) ([1]; 80° C.) [%]	Change in solid state [2]	Desorporption. Weight % change ([3]; 0 % RH) [%]	Sorption Weight % change ([3]; 0 % RH) [%]	Desorporption. Weight % change ([3]; 10 % RH) [%]	Sorption Weight % change ([3]; 10 % RH) [%]	Desorporption. Weight % change ([3]; 20 % RH) [%]	Sorption Weight % change ([3]; 20 % RH) [%]	Desorporption. Weight % change ([3]; 30 % RH) [%]	Sorption Weight % change ([3]; 30 % RH) [%]	Desorporption. Weight % change ([3]; 40 % RH) [%]	Sorption Weight % change ([3]; 40 % RH) [%]	Desorporption. Weight % change ([3]; 50 % RH) [%]	Sorption Weight % change ([3]; 50 % RH) [%]	Sorption Weight % change ([3]; 60 % RH) [%]	Desorporption. Weight % change ([3]; 70 % RH) [%]	further results
Cc1ccc(-c2noc([C@H]3C[C@@H]3F)n2)cc1NC(=O)c1cnc2ccccn12 [fumaric acid co-crystal, N-(5-(5-((1R,2S)-2-fluorocyclopropyl)-1,2,4-oxadiazol-3-yl)-2-methylphenyl)imidazo[1,2-a]pyridine-3-carboxamide fumaric acid co-crystal]	Bulk (XRPD): No change	No change	0.15	No change	0.08	no change in solid state	0.0000	0.0000	0.0153	−0.0019	0.0307	0.0038	0.0939	0.0383	0.0996	0.0632	0.1130	0.0843	0.0958	0.1590	Sorption Weight % change ([3]; 70 % RH): 0.1322%; Desorporption. Weight % change ([3]; 80 % RH): 0.1897%; Sorption Weight % change ([3]; 80 % RH): 0.1590%; Desorporption. Weight % change ([3]; 90 % RH): 0.1935%; Sorption Weight % change ([3]; 90 % RH): 0.2107%
Cc1ccc(-c2noc([C@H]3C[C@@H]3F)n2)cc1NC(=O)c1cnc2ccccn12 [Form A, N-(5-(5-((1R,2S)-2-fluorocyclopropyl)-1,2,4-oxadiazol-3-yl)-2-methylphenyl)imidazo[1,2-a]pyridine-3-carboxamide]	Bulk (XRPD): No change	No change	0.06	No change	0.07	no change in solid state	0.0000	0.0000	0.0167	0.0167	0.0501	0.0234	0.0768	0.0468	0.0802	0.0601	0.0735	0.0568	0.0868	0.1369	Desorporption. Weight % change ([3]; 60 % RH): 0.0969%; Sorption Weight % change ([3]; 70 % RH): 0.1169%; Desorporption. Weight % change ([3]; 80 % RH): 0.1803%; Sorption Weight % change ([3]; 80 % RH): 0.1436%; Desorporption. Weight % change ([3]; 90 % RH): 0.2338%; Sorption Weight % change ([3]; 90 % RH): 0.2104%
